Here are results for 14 molecules from PubChem BioAssay AID1963448 (Molecular Pharmacology Branch, DTP, NCI, 2024).

Each structure is given as a SMILES string. “And” between values parts separate entries of the source, which are not always exact repeats. Identical values can stand only once.

The subject of this test is 616215-338-R-J1-PDC complex spheroid growth, % test/control. Description: Anticancer human tumor 616215-338-R-J1-PDC patient-derived colon adenocarcinoma cell line growth inhibition [Asc]. The following applies: for viability, T/C: stronger effect = lower value. Here is the method:
Multicellular complex tumor spheroid response to apoptosis pathway targeting inhibitors Alrizomadlin, Pelcitoclax, and Dasminapant in combination with a variety of drugs and investigational agents in selected tumor cell lines
The MDM2 inhibitor alrizomadlin, the Bcl-2/Bcl-xL inhibitor pelcitoclax, and the IAPs inhibitor dasminapant were evaluated both individually and in combination with standard of care and investigational anticancer small molecules within a complex spheroid model of solid tumors. . Complex spheroids include a stromal component modeled by human endothelial cells (HUVEC) and fibroblasts modeled by human mesenchymal stem cells (MSCs). The concentration ranges selected for each drug and investigational agent were based upon clinically achievable concentrations if the clinical Cmax of the agent was known.
Compounds. The drugs and investigational agents: alrizomadlin (APG-115; NSC831270), pelcitoclax (APG-1252; NSC835773), dasminapant (APG-1387;NSC834197), TAK-243 (NSC785004), copanlisib (NSC809693), olaparib (NSC753686), talazoparib (NSC767125), cobimetinib (NSC 768068), eltanexor (KPT-8602, NSC 794443), abemaciclib (NSC 768073), sotorasib (NSC818433), adagrasib (NSC 831453), MRTX-1133 (NSC 836407), Iadademestat (ORY1001, NSC 806812), and RMC-4630 (NSC839698), were obtained from the NCI Developmental Therapeutics Program Chemical Repository. The FDA-approved anticancer drug set is available from the Developmental Therapeutics Program at https://dtp.cancer.gov/organization/dscb/obtaining/available plates.htm. […] The stock solutions were prepared in dimethyl sulfoxide (DMSO, Sigma-Aldrich, St. Louis, MO, cat. D2650) at 800-fold the tested concentration and stored at -70 degrees C prior to their use. All drugs and investigational agents were tested over a range starting from a high concentration at or near the clinical Cmax and decreasing in half-log increments. If the clinical Cmax for an agent had not been determined, the highest concentration tested was 10 microM.
The patient-derived cancer (PDC) cell lines include five colon adenocarcinomas: 186277-243-T-J2-PDC, 616215-338-R-J1-PDC, 439559-082-T-J2-PDC, 463943-066-T-J2-PDC, and 519858-162-T-J1-PDC; three pancreatic carcinomas: 323965-272-R-J2-PDC, 521955-158-R6-J3-PDC, and 521955-158-R2-J5-PDC; two uterine sarcomas: 327498-152-R-J2-PDC and 993429-296-R-J1-PDC; two rhabdomyosarcomas: 755483-174-R-J1-PDC and 772245-204-R-J1-PDC; two soft tissue sarcomas: 126254-015-R-J1-PDC and 494315-158-R-J1-PDC; two malignant fibrous histiocytomas: 317291-083-R-J1-PDC and 596521-263-R-J1-PDC; two breast carcinomas: 171881-019-R-J1-PDC and 885512-296-R-J2-PDC; and one ovarian carcinoma: 6556581-035-R-J-PDC were obtained from the NCI PDMR, (https://pdmr.cancer.gov). The established cell lines HSSY-2 synovial sarcoma (RRID:CVCL 8719), SYO-1 synovial sarcoma (RRID:CVCL_7146), MPNST malignant peripheral neural sheath tumor were obtained from the Sloan Kettering Institute. The following established cell lines were purchased from the American Type Culture Collection (ATCC, Manassas, VA), Sor the received from the NCI repository:, PANC-1 pancreatic carcinoma (CRL-1469, RRID:CVCL_0480), OVCAR-5 ovarian carcinoma (RRID:CVCL_1628), OVCAR-8 ovarian carcinoma (RRID:CVCL_1629), , MCF-7 breast carcinoma (CRL-12584, RRID:CVCL_0031), MDA-MB-231 breast carcinoma (CRL-12532, RRID:CVCL_0062), NCI-H1876 small cell lung carcinoma (CRL-5902, RRID:CVCL_1503), NCI-H510A small cell lung carcinoma (HTB-184, RRID:CVCL_1565), NCI-H1417 (CRL-5869, RRID:CVCL_1469), and NCI-H196 small cell lung carcinoma (CRL-5823, RRID:CVCL_1509). Dr. Peter Houghton (Greehey Children's Cancer Research Institute, University of Texas Health Science Center, San Antonio, TX) provided Rh-18 rhabdomyosarcoma (RRID:CVCL_1659). Pooled donor human umbilical vein endothelial cells (HUVEC, Lonza, cat. CC-2519) and human mesenchymal stem cells (hMSC, Lonza, cat. PT-2501) were purchased from Lonza (Walkersville, MD).
Cell Culture. […]
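Note: spheroids exposed to agents for seven days before readout.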
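Throughout, for viability, T/C: 100% = DMSO vehicle control viability.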

Turning to `C#Cc1c(F)ccc2cc(O)cc(-c3ncc4c(N5CC6CCC(C5)N6)nc(OCC56CCCN5CC(F)C6)nc4c3F)c12` (configuration not stated), the viability, T/C (in general, the result in the treated group divided by that in the control group, in per cent) reads like this: (compound 0.0316 µM) 105% and 96.2% and 99%; (compound 0.1 µM) 96% and 104% and 102%; (compound 0.316 µM) 104% (2×) and 94.8%; (compound 1 µM) 106% and 113% and 101%; (compound 3.16 µM) 49.3% and 108% and 101%. For the same molecule, the IC50 (commonly the concentration at which inhibition is half-maximal) (curve of compound) is 3120 nM and > 10000 nM.
On to `C=C(F)C(=O)N1CCN(c2nc(OCC3CCCN3C)nc3c2CCN(c2cccc4cccc(Cl)c24)C3)CC1CC#N` (configuration not stated), for which the viability, T/C by setting is: (compound 0.0316 µM) 75.3% and 90.8% and 99.4%; (compound 0.1 µM) 72.6% and 95.6% and 102%; (compound 0.316 µM) 59.3% and 97.8% and 100%; (compound 1 µM) 38.8% and 98.2% and 107%; (compound 10 µM) 0.82% and 0.6% and 0.47%.
For the molecule `C=CC(=O)N1CCN(c2nc(=O)n(-c3c(C)ccnc3C(C)C)c3nc(-c4c(O)cccc4F)c(F)cc23)C(C)C1` (configuration not stated), the viability, T/C is 97% and 99.6% and 107% (compound 0.0316 µM); 95.3% and 101% and 91.9% (compound 0.1 µM); 102% and 98.2% and 97.2% (compound 0.316 µM); 102% and 100% and 74.5% (compound 1 µM); 106% and 109% and 52.6% (compound 3.16 µM); 102% and 106% and 35.4% (compound 10 µM). For the same molecule, the IC50 (curve of compound) was > 10000 nM and 3750 nM.
Regarding `CCN1C(C(=O)NC23CCC(C(=O)O)(CC2)CC3)C(c2cccc(Cl)c2F)C2(C(=O)Nc3cc(Cl)ccc32)C12CCCCC2` (configuration not stated), the viability, T/C was 106% and 100% (compound 0.00949 µM); 96.6% [middle of 15 runs] (compound 0.03 µM). Moreover, the IC50 (curve of compound) is 965 nM and > 3000 nM.
With `CCN1CCN(Cc2ccc(Nc3ncc(F)c(-c4cc(F)c5nc(C)n(C(C)C)c5c4)n3)nc2)CC1`, the viability, T/C is, setting by setting: (compound 0.00316 µM) 98.2% and 91.4% and 109%; (compound 0.01 µM) 97.2% and 108% and 113%; (compound 0.0316 µM) 96.5% and 104% and 78.5%; (compound 0.1 µM) 102% and 106% and 82.5%; (compound 0.316 µM) 122% and 102% and 65.8%; (compound 1 µM) 130% and 117% and 34.9%. For the same molecule, the IC50 (curve of compound) was > 1000 nM and 543 nM.
For `CNC(C)C(=O)NC1CN(S(=O)(=O)c2cccc(S(=O)(=O)N3CCC4CCC(C(=O)NC(c5ccccc5)c5ccccc5)N4C(=O)C(NC(=O)C(C)NC)C3)c2)CCC2CCC(C(=O)NC(c3ccccc3)c3ccccc3)N2C1=O` (configuration not stated), the viability, T/C by setting is: (compound 0.01 µM) 105% [middle of 9 runs]; (compound 0.1 µM) 101% [middle of 9 runs]; (compound 0.316 µM) 102% [middle of 9 runs]; (compound 1 µM) 101% [middle of 9 runs]. For the same molecule, where the note is “curve of compound”, the concentration for half-maximal inhibition (IC50) was more than 1000 nM.
`COc1c(OCCCN2CCOCC2)ccc2c3n(c(=NC(=O)c4cnc(N)nc4)nc12)CCN3`: the viability, T/C reads like this: (compound 0.00316 µM) 102% (2×) and 105%; (compound 0.01 µM) 107% and 102% and 98.3%; (compound 0.0316 µM) 111% and 100% and 68%; (compound 0.1 µM) 95.3% and 105% and 36.9%; (compound 0.316 µM) 48.7% and 43.9% and 18.3%; (compound 1 µM) 28.9% and 26% and 11.2%. In addition, the IC50 (curve of compound) is 305 nM and 281 nM and 62.4 nM.
In the case of `Cc1c(S(C)(=O)=O)c(-c2cc(F)cc(N3CCN(c4ccc(NS(=O)(=O)c5ccc(NC(CCN6CCC(C(=O)OCCCP(=O)(O)O)CC6)CSc6ccccc6)c(S(=O)(=O)C(F)(F)F)c5)cc4)CC3)c2)c(-c2ccc(Cl)cc2)n1C(C)C` (configuration not stated), the viability, T/C reads like this: (compound 0.1 µM) 89.8% [middle of 14 runs]; (compound 0.316 µM) 88.1% [middle of 14 runs]; (compound 1 µM) 69.6% [middle of 14 runs]; (compound 3.16 µM) 38% [middle of 13 runs]; (compound 10 µM) 27.6% [middle of 14 runs]. Also, under “compound alone, run of 10/11/2022”, the IC50 was 1.96 µM [middle of 13 runs].
Turning to `Cc1nc(N2CCC3(CC2)COC(C)C3N)c(CO)nc1Sc1ccnc(N)c1Cl` (configuration not stated), the viability, T/C is 102% and 94% and 101% (compound 0.00949 µM); 90.5% and 98.1% and 102% (compound 0.03 µM); 104% and 105% and 103% (compound 0.0949 µM); 81.2% and 99.7% and 101% (compound 0.3 µM); 48% and 102% (2×) (compound 0.949 µM); 11.8% and 95.5% and 91.3% (compound 3 µM). Further, for the setting “curve of compound”, the IC50 is 871 nM and > 3000 nM.
Consider `Cn1ncnc1[C@H]1c2n[nH]c(=O)c3cc(F)cc(c23)N[C@@H]1c1ccc(F)cc1`, for which the viability, T/C was 93.4% and 104% and 99.2% (compound 0.000316 µM); 96.2% and 100% and 92.5% (compound 0.001 µM); 97.1% and 98.9% and 93.8% (compound 0.00316 µM); 99% and 106% and 100% (compound 0.01 µM); 95.7% and 100% and 102% (compound 0.0316 µM); 108% (2×) and 100% (compound 0.1 µM). For the same molecule, the IC50 (curve of compound) is more than 100 nM.
Turning to `NC(=O)C(=Cn1cnc(-c2cc(C(F)(F)F)cc(C(F)(F)F)c2)n1)c1cncnc1`, the viability, T/C was 97.1% and 89.2% and 43.2% (compound 0.000949 µM); 96.8% and 85% and 52.7% (compound 0.003 µM); 99.3% and 95.9% and 24.4% (compound 0.00949 µM); 100% and 86.7% and 29.2% (compound 0.03 µM); 95.2% and 81.8% and 20.7% (compound 0.0949 µM); 97.6% and 91.7% and 30.1% (compound 0.3 µM).
As for `NC1CCC(NC2CC2c2ccccc2)CC1` (configuration not stated), the viability, T/C (compound 0.000316 µM) is 96.5% and 100% and 109%; the viability, T/C (compound 0.001 µM) was 102% (2×) and 97.4%; the viability, T/C (compound 0.00316 µM) was 90.4% and 95.5% and 101%; the viability, T/C (compound 0.01 µM) was 92.3% and 96.8% and 93.5%; the viability, T/C (compound 0.0316 µM) is 91.6% and 91.8% and 99.5%; the viability, T/C (compound 0.1 µM) is 92.8% and 94.4% and 97.4%. For the same molecule, the IC50 (curve of compound) was more than 100 nM.
As for `O=C(c1cc(Cc2n[nH]c(=O)c3ccccc23)ccc1F)N1CCN(C(=O)C2CC2)CC1`, the viability, T/C (compound 0.0316 µM) was 97.1% and 97.4% and 112%; the viability, T/C (compound 0.1 µM) was 99.8% and 94.7% and 98.3%; the viability, T/C (compound 0.316 µM) is 97.7% and 99.4% and 100%; the viability, T/C (compound 1 µM) was 96.5% and 94.7% and 99.3%; the viability, T/C (compound 3.16 µM) was 96.8% and 106% and 90.6%; the viability, T/C (compound 10 µM) is 91.1% and 90.2% and 89.1%. In addition, the IC50 (curve of compound) was more than 10000 nM.
Regarding `O=C(c1ccc(F)c(F)c1Nc1ccc(I)cc1F)N1CC(O)([C@@H]2CCCCN2)C1`, the viability, T/C is 89.5% and 99.8% and 108% (compound 0.00316 µM); 84.3% and 101% and 100% (compound 0.01 µM); 74.5% and 93.8% and 67.1% (compound 0.0316 µM); 54.4% and 51.2% and 15.8% (compound 0.1 µM); 22.1% and 19.3% and 4.03% (compound 0.316 µM); 1.33% and 0.76% and 3.69% (compound 1 µM). Also, the IC50 (curve of compound) is 113 nM and 114 nM and 46.2 nM.
